Measured values: PMC12557437, “Research towards selective inhibition of the CLK3 kinase” (Beilstein Journal of Organic Chemistry, 2025)
Where “and” joins values, the source holds several entries; their conditions need not be identical. Identical values can stand only once.

Key:
[1] = test system: CLK1; conditions: human protein kinase; ref 17 (SM08502), 19 (T3), 20-21 (CX-4945), 24 (DB18); cited from earlier work
[2] = test system: CLK2; conditions: human protein kinase; ref 17 (SM08502), 19 (T3), 20-21 (CX-4945), 24 (DB18); cited from earlier work
[3] = test system: CLK3; conditions: human protein kinase; ref 17 (SM08502), 19 (T3), 20-21 (CX-4945), 24 (DB18); cited from earlier work
[4] = test system: CLK4; conditions: human protein kinase; ref 17 (SM08502), 20-21 (CX-4945), 24 (DB18); cited from earlier work
[5] = test system: DYRK1A; conditions: human protein kinase; ref 17 (SM08502), 19 (T3), 20-21 (CX-4945), 24 (DB18); cited from earlier work
[6] = biological target: Hs_CDK5/p25 (Homo sapiens, UniProt Q00535); assay: primary screening, short panel of mammalian kinases; type: biochemical; conditions: ATP 10 µM, means, n = 2, read-out: Residual kinase activity Hs_CDK5/p25; for remaining activity at 1 µM: compound 1 μM; for remaining activity at 10 µM: compound 10 μM
From the text: (§1) Our molecules have been submitted first to a primary screening against a panel of eight disease-related kinases: five members of the CMGC (for CDK, MAPK, GSK3, and CLK) group (CDK5/p25, CDK9/CyclinT, GSK3β, CLK1 and DYRK1A), one CAMK (calmodulin/calcium regulated kinase PIM1), one CK1 (the casein kinase CK1ε), and haspin as a […] kinase.
(§2) Figure 4 Primary evaluation of the inhibition of the new quinazolines against a short panel of mammalian kinases. Residual kinase activities are expressed in % of maximal activity, i.e., measured in the absence of inhibitor but with an equivalent dose of DMSO (solvent of the tested compounds). ATP concentration used in the kinase assays was 10 µM (values are means, n = 2). Kinases are from human origin (Homo sapiens) except CLK1 (from Mus musculus) and DYRK1A (from Rattus norvegicus). […]

[7] = biological target: Hs_CDK9/CyclinT (Homo sapiens, UniProt P50750); assay: as above; type: biochemical; conditions: ATP 10 µM, means, n = 2, read-out: Residual kinase activity Hs_CDK9/CyclinT; for remaining activity at 1 µM: compound 1 μM; for remaining activity at 10 µM: compound 10 μM
From the text: as §1, §2

[8] = biological target: Hs_CK1ε (Homo sapiens, UniProt P49674); assay: as above; type: biochemical; conditions: ATP 10 µM, means, n = 2, read-out: Residual kinase activity Hs_CK1ε; for remaining activity at 1 µM: compound 1 μM; for remaining activity at 10 µM: compound 10 μM
From the text: as §1, §2

[9] = biological target: Hs_GSK3β (Homo sapiens, UniProt P49841); assay: as above; type: biochemical; conditions: ATP 10 µM, means, n = 2, read-out: Residual kinase activity Hs_GSK3β; for remaining activity at 1 µM: compound 1 μM; for remaining activity at 10 µM: compound 10 μM
From the text: as §1, §2

[10] = biological target: T1, Hs_HASPIN (Homo sapiens, UniProt Q8TF76); assay: as above; type: biochemical; conditions: ATP 10 µM, means, n = 2, read-out: Residual kinase activity Hs_HASPIN; for remaining activity at 1 µM: compound 1 μM; for remaining activity at 10 µM: compound 10 μM
T1 sequence (Q8TF76 1-798): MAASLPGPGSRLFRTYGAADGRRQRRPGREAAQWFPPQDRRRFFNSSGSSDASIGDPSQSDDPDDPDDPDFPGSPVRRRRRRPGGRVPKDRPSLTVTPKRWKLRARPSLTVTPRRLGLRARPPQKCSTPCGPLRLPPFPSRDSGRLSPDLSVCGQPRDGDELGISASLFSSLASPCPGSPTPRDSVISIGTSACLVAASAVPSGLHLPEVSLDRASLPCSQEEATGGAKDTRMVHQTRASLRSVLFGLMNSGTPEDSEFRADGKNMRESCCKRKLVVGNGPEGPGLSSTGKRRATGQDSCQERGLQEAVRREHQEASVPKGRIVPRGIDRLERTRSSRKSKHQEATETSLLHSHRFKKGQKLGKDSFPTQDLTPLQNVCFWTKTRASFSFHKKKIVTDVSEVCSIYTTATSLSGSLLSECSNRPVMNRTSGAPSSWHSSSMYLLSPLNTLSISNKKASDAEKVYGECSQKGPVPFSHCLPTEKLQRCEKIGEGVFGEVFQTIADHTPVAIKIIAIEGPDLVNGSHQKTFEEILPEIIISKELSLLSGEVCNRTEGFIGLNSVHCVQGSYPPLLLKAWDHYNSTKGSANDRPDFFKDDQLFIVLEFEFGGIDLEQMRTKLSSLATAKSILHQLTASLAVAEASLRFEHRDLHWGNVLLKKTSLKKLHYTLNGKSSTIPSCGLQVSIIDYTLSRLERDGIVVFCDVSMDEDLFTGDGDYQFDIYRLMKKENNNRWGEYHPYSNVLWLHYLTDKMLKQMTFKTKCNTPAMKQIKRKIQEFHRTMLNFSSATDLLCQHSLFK
From the text: as §1, §2

[11] = biological target: Hs_PIM1 (Homo sapiens, UniProt P11309); assay: as above; type: biochemical; conditions: ATP 10 µM, means, n = 2, read-out: Residual kinase activity Hs_PIM1; for remaining activity at 1 µM: compound 1 μM; for remaining activity at 10 µM: compound 10 μM
From the text: as §1, §2

[12] = biological target: T2, Mm_CLK1 (Mus musculus, UniProt P22518); assay: as above; type: biochemical; conditions: for remaining activity at 1 µM: compound 1 μM; for remaining activity at 1 µM / remaining activity at 10 µM: ATP 10 µM, means, n = 2, read-out: Residual kinase activity Mm_CLK1; for remaining activity at 10 µM: compound 10 μM; for activity against CLK1 in primary screening: 1 and 10 µM
From the text: as §1, §2

[13] = biological target: Rn_DYRK1A (Rattus norvegicus, UniProt Q63470); assay: as above; type: biochemical; conditions: ATP 10 µM, means, n = 2, read-out: Residual kinase activity Rn_DYRK1A; for remaining activity at 1 µM: compound 1 μM; for remaining activity at 10 µM: compound 10 μM
From the text: as §1, §2

[14] = biological target: T2, Mm_CLK1; assay: radiometric γ33P-ATP kinase assay (Eurofins); type: biochemical; conditions: for IC50: 15 µM ATP, dose-response, points in duplicate; for Mm_CLK3/Mm_CLK1: ratio of IC50 values
Experimental: (§3) The results are reported in Table 2 and in Supporting Information File 1.
(§4) 2- Kinase inhibition studies
(§5) Kinase enzymatic activities were assayed using both luminescent ADP detection assay
(§6) (ADP-GloTM assay kit, Promega, Madison, WI) or radiometric kinase assay. These
(§7) assays were performed using the protocols described in our previous publication. […]
(§8) 1.Brahmaiah, D.; Kanaka Durga Bhavani, A.; Aparna, P.; Sampath Kumar, N.; Solhi,
(§9) H.; Le Guevel, R.; Baratte, B.; Ruchaud, S.; Bach, S.; Singh Jadav, S.; Raji Reddy, C.;
(§10) Roisnel, T.; Mosset, P.; Levoin, N.; Grée, R. Bioorg.
(§11) R.; Baratte, B.; Robert, T.; Ruchaud, S.; Bach, S.; Jadav, S. S.; Reddy, C. […]

[15] = biological target: Mm_CLK2 (Mus musculus, UniProt O35491); assay: radiometric γ33P-ATP kinase assay (Eurofins); type: biochemical; conditions: for IC50: 15 µM ATP, dose-response, points in duplicate; for Mm_CLK3/Mm_CLK2: ratio of IC50 values
Experimental: as §3, §4, §5, §6, §7, §8, §9, §10, §11

[16] = biological target: Mm_CLK4 (Mus musculus, UniProt O35493); assay: radiometric γ33P-ATP kinase assay (Eurofins); type: biochemical; conditions: for IC50: 15 µM ATP, dose-response, points in duplicate; for Mm_CLK3/Mm_CLK4: ratio of IC50 values
Experimental: as §3, §4, §5, §6, §7, §8, §9, §10, §11

[17] = biological target: Mm_CLK3 (Mus musculus, UniProt O35492); assay: radiometric γ33P-ATP kinase assay (Eurofins); type: biochemical; conditions: 15 µM ATP; dose-response, points in duplicate
Experimental: as §3, §4, §5, §6, §7, §8, §9, §10
R.; Baratte, B.; Robert, T.; Ruchaud, S.; Bach, S.; Jadav, S. S.; Reddy, C. R.; Mosset,
P.; Gouault, N.; Levoin, N.; Grée, R. Molecules 2022, 27, 6149. […]

Hs_CK1ε, sequence (P49674 whole entry): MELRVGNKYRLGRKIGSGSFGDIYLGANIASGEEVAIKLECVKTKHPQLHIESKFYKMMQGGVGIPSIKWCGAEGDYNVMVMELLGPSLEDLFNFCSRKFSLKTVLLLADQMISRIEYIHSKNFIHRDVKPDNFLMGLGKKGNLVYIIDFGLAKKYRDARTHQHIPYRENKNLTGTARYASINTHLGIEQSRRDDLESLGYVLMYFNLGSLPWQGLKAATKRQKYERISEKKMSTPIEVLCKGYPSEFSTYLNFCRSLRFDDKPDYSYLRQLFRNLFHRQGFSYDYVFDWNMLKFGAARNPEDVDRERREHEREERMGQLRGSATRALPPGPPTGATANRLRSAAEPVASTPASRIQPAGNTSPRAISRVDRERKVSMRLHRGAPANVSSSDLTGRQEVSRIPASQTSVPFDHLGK
Mm_CLK4, sequence (O35493 whole entry): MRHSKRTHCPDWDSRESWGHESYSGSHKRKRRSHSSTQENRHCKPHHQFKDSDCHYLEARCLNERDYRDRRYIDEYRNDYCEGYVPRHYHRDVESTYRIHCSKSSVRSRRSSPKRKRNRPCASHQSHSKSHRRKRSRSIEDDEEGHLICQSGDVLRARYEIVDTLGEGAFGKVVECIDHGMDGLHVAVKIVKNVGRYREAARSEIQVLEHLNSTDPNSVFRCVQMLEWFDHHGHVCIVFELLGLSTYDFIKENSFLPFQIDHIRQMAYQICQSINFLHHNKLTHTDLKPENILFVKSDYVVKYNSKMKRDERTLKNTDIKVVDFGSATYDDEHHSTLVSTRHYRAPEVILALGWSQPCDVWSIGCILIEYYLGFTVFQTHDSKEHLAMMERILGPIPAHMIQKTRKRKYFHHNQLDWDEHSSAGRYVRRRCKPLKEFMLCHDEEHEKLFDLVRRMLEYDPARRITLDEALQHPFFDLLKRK
Hs_CDK9/CyclinT, sequence (P50750 whole entry): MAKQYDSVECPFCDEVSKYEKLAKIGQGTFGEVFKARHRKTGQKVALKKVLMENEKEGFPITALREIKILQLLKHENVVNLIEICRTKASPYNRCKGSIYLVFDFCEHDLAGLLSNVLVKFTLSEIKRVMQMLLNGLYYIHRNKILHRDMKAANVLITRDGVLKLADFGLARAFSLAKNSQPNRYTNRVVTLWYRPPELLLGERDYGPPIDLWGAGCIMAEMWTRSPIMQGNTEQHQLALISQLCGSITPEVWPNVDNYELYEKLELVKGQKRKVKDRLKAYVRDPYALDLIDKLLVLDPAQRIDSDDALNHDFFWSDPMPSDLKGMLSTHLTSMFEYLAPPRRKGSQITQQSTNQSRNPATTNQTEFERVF
Hs_CDK9/CyclinT, sequence (O60563 whole entry partner): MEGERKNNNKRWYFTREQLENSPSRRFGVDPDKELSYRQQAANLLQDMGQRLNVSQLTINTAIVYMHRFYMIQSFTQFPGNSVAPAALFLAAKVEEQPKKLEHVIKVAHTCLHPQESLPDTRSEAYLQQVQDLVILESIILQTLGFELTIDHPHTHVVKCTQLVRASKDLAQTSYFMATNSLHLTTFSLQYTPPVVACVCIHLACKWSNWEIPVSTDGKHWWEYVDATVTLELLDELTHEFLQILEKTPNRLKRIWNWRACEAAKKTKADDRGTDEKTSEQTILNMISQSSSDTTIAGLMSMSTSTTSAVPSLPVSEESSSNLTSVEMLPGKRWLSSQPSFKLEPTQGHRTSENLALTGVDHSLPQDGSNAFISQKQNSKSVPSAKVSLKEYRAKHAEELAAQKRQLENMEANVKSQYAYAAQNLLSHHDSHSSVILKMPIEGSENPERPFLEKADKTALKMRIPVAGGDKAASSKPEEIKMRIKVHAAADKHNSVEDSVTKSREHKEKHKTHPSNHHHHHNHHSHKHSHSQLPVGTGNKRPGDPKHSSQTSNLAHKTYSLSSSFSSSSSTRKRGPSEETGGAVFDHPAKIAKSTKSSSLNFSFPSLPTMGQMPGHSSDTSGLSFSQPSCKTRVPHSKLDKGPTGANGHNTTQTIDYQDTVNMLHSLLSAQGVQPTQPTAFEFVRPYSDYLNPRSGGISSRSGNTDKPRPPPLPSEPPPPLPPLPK
Hs_GSK3β, sequence (P49841 whole entry): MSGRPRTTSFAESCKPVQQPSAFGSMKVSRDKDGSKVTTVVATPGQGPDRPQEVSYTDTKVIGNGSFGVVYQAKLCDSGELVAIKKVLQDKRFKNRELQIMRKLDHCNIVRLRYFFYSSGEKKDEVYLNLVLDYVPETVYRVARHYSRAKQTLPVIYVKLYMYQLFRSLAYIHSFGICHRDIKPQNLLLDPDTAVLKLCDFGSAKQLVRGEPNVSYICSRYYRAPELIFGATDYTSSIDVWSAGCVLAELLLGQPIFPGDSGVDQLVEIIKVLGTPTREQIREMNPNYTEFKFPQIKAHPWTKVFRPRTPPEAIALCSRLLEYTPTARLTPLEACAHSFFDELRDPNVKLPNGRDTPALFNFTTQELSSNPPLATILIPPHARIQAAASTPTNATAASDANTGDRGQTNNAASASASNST
Mm_CLK3, sequence (O35492 whole entry): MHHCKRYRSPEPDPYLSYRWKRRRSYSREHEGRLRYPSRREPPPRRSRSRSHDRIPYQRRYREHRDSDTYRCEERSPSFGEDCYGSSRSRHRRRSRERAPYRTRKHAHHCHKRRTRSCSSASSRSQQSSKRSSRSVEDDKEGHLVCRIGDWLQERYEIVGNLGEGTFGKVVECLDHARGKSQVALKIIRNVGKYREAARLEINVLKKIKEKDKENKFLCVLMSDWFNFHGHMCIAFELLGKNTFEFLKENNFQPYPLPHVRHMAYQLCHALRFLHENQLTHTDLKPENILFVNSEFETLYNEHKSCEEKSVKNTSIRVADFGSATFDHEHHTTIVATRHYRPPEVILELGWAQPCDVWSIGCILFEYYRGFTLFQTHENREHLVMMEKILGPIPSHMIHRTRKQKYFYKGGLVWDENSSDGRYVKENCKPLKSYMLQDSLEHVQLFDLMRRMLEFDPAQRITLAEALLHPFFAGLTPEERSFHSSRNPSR
Hs_CDK5/p25, sequence (Q00535 whole entry): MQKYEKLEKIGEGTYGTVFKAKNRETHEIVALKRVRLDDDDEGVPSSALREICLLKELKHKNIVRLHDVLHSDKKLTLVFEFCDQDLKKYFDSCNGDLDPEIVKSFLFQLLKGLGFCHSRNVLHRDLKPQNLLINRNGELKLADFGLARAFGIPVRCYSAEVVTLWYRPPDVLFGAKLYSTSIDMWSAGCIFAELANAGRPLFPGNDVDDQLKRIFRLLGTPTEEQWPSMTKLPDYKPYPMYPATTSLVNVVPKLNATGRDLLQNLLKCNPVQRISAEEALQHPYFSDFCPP
Hs_CDK5/p25, sequence (Q15078 99-307 partner limits assumed): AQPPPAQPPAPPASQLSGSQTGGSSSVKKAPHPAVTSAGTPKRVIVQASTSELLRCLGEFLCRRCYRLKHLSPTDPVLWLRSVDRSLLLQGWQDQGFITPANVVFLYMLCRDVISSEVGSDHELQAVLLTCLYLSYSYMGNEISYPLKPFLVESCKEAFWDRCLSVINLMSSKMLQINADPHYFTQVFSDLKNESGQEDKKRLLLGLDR
Mm_CLK2, sequence (O35491 whole entry): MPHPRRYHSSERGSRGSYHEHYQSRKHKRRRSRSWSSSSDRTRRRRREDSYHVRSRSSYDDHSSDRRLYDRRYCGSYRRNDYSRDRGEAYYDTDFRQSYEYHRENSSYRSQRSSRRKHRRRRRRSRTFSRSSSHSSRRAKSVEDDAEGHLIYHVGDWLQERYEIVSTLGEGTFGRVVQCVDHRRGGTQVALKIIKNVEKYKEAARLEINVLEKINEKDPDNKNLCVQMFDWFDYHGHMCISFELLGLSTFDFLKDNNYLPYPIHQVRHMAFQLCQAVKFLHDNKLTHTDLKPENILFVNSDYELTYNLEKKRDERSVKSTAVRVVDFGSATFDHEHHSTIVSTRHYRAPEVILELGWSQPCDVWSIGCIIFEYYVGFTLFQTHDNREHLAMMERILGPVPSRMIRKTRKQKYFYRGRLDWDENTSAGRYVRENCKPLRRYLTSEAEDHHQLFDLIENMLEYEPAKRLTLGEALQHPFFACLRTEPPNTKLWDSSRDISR
T2 sequence (P22518 whole entry): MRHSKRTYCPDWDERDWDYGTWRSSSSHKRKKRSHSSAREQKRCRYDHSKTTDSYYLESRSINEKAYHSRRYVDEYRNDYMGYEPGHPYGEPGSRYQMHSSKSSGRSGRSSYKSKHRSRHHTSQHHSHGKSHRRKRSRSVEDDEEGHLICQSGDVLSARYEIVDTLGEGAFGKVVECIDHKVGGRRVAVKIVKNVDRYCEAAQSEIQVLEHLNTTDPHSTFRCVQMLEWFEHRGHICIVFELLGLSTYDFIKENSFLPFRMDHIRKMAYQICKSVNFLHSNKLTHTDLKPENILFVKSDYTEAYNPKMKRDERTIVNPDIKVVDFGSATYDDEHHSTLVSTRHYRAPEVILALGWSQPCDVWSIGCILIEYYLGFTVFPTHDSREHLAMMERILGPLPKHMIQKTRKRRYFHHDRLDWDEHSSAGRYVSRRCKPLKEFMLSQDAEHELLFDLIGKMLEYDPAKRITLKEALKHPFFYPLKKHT
Hs_PIM1, sequence (P11309 whole entry): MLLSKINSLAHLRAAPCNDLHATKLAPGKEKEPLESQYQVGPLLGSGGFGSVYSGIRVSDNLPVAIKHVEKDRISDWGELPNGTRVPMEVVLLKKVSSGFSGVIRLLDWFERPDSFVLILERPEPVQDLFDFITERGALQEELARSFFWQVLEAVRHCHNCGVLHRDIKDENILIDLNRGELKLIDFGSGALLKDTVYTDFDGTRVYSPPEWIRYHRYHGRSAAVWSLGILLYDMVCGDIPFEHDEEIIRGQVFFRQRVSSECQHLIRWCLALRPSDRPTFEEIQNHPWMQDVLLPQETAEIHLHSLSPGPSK

remaining activity at 1 µM [6]	remaining activity at 10 µM [6]	remaining activity at 1 µM [7]	remaining activity at 10 µM [7]	remaining activity at 1 µM [8]	remaining activity at 10 µM [8]	remaining activity at 1 µM [9]	remaining activity at 10 µM [9]	remaining activity at 1 µM [10]	remaining activity at 10 µM [10]	remaining activity at 1 µM [11]	remaining activity at 10 µM [11]	remaining activity at 1 µM [12]	remaining activity at 10 µM [12]	remaining activity at 1 µM [13]	remaining activity at 10 µM [13]	activity against CLK1 in primary screening [12]	IC50 [14]	Mm_CLK3/Mm_CLK1 [14]	IC50 [15]	Compound	further results
74%	≥ 100%	96%	91%	≥ 100%	≥ 100%	90%	86%	65%	43%	≥ 100%	96%	60%	66%	≥ 100%	≥ 100%	–	–	–	–	COC(=O)c1ccc(-c2cc(Cl)cc(Nc3ncc4cccc(OCc5cn(-c6ccc(C)cc6[N+](=O)[O-])nn5)c4n3)c2)cc1 [Compound 9b]	–
85%	92%	94%	83%	≥ 100%	≥ 100%	97%	62%	47%	39%	90%	98%	54%	48%	≥ 100%	≥ 100%	–	–	–	–	COC(=O)c1cccc(-c2cc(Cl)cc(Nc3ncc4cccc(OCc5cn(-c6ccc(C)cc6[N+](=O)[O-])nn5)c4n3)c2)c1 [Compound 12b]	–

Further lines, the compound ahead of its results:

Compound	remaining activity at 1 µM [6]	remaining activity at 10 µM [6]	remaining activity at 1 µM [7]	remaining activity at 10 µM [7]	remaining activity at 1 µM [8]	remaining activity at 10 µM [8]	remaining activity at 1 µM [9]	remaining activity at 10 µM [9]	remaining activity at 1 µM [10]	remaining activity at 10 µM [10]	remaining activity at 1 µM [11]	remaining activity at 10 µM [11]	remaining activity at 1 µM [12]	remaining activity at 10 µM [12]	remaining activity at 1 µM [13]	remaining activity at 10 µM [13]	activity against CLK1 in primary screening [12]	IC50 [14]	Mm_CLK3/Mm_CLK1 [14]	IC50 [15]	further results
O=C(O)c1ccc2c(c1)nc(Nc1cccc(Cl)c1)c1ccncc12 [CX-4945]	–	–	–	–	–	–	–	–	–	–	–	–	–	–	–	–	–	–	–	–	IC50 [1]: 3.3 nM; IC50 [2]: 2.9 nM; IC50 [3]: 67 nM; IC50 [4]: 23 nM; IC50 [5]: […]
COC(=O)c1ccc(-c2cccc(Nc3ncc4cccc(OCc5cn(-c6ccc(C)cc6[N+](=O)[O-])nn5)c4n3)c2)cc1 [Compound 9a]	70%	84%	98%	95%	78%	95%	70%	53%	95%	≥ 100%	≥ 100%	90%	66%	58%	≥ 100%	≥ 100%	–	–	–	–	–
Cc1ccc(-n2cc(COc3cccc4cnc(Nc5cccc(-c6ccc(C(=O)O)cc6)c5)nc34)nn2)c([N+](=O)[O-])c1 [Compound 10a]	61%	70%	84%	38%	93%	84%	82%	32%	93%	92%	80%	≥ 100%	15%	0%	≥ 100%	84%	significant activity against CLK1	891 nM	4.18	844 nM	Mm_CLK3/Mm_CLK2 [15]: 4.42; IC50 [16]: 762 nM; Mm_CLK3/Mm_CLK4 [16]: 4.90; IC50 [17]: 3700 nM and 3730 nM
Cc1ccc(-n2cc(COc3cccc4cnc(Nc5cc(Cl)cc(-c6ccc(C(=O)O)cc6)c5)nc34)nn2)c([N+](=O)[O-])c1 [Compound 10b]	53%	43%	99%	66%	≥ 100%	92%	92%	56%	85%	92%	84%	≥ 100%	38%	8%	82%	94%	significant activity against CLK1	213 nM	4.04	118 nM	Mm_CLK3/Mm_CLK2 [15]: 7.29; IC50 [16]: 145 nM; Mm_CLK3/Mm_CLK4 [16]: 5.94; IC50 [17]: 861 nM
Cc1ccc(-n2cc(COc3cccc4cnc(Nc5cccc(-c6cccc(C(=O)O)c6)c5)nc34)nn2)c([N+](=O)[O-])c1 [Compound 13a]	62%	9%	83%	24%	≥ 100%	≥ 100%	95%	26%	79%	63%	68%	≥ 100%	44%	5%	92%	60%	significant activity against CLK1	680 nM	2.43	278 nM	Mm_CLK3/Mm_CLK2 [15]: 5.95; IC50 [16]: 428 nM; Mm_CLK3/Mm_CLK4 [16]: 3.87; IC50 [17]: 1660 nM
